Laboratory results taken from article PMC11642016 (International Journal of Molecular Sciences, 2024).
Where “and” joins values, the source holds several entries; their conditions need not be identical. Identical values can stand only once. Like-named read-outs stand apart in the source and are kept apart here.

Key:
[1] = system: non-tumorous primary fibroblast cells; assay: CellTiter-Glo luminescent cell viability assay, primary fibroblasts; conditions: ONC201 value mathematically estimated from inflection point, viability stayed above 50%
[2] = as above; conditions: human, primary skin fibroblasts (non-tumorous), Primer fibroblast Cell viability (% of controll), 72 h, dose–response, individual replicates
[3] = system: PANC-1 cells; assay: CellTiter-Glo luminescent cell viability assay, PANC-1; conditions: for viability at 2.8 µM: read-out: Cell Viability (% of Control) 2.8 µM, PANC-1; for viability at 2.8 µM / viability at 8.3 µM / viability at 25 µM: mean ± SD, n = 2; for viability at 8.3 µM: read-out: Cell Viability (% of Control) 8.3 µM, PANC-1; for viability at 25 µM: read-out: Cell Viability (% of Control) 25 µM, PANC-1
[4] = system: PANC-1 and Fadu cells; assay: CellTiter-Glo viability, statements covering both cancer cell lines; type: cell-based, human; conditions: Homo sapiens; 25 µM; in either of the cancer cell lines; read-out: drop in viability at 25 µM
[5] = Homo sapiens, PANC-1, 72 h, 72 h, first-set screening
[6] = Homo sapiens, PANC-1, 72 h, 72 h, second-set screening

In the case of `NCC#Cc1ccc(CN2C(=O)C3=C(CCN(Cc4ccc(-n5cc(-c6ccccc6)nn5)cc4)C3)N3CCN=C23)cc1` [I/B, reference compound], the IC50 ([1]; Homo sapiens, Fibroblast, read-out: Primary fibroblast IC50 values, individual replicates n1-n3, IC50 independently determined for each replicate (Supplement S.6)) is reported as 11.1 µM, the IC50 ([1]; read-out: Primary fibroblast IC50 values, individual replicates n1-n3, IC50 independently determined for each replicate (Supplement S.6)) is reported as 11.1 µM and 11.4 µM and the viability at 72 h, 0.7 µM ([2]; 0.7 μM) is reported as 93%. It also gave a viability at 72 h, 1 µM ([2]; 1 μM) of 99%, a viability at 72 h, 1.5 µM ([2]; 1.5 μM) of 105% and a viability at 72 h, 2.3 µM ([2]; 2.3 μM) of 100%. For the same molecule, the viability at 72 h, 3.4 µM ([2]; 3.4 μM) was 101%, the viability at 72 h, 5.1 µM ([2]; 5.1 μM) was 104% and the viability at 72 h, 7.7 µM ([2]; 7.7 μM) was 92%. The viability at 72 h, 17.3 µM ([2]; 17.3 μM) was 0%, the viability at 72 h, 26 µM ([2]; 26 μM) was 0% and the “PANC-1 Cell viability (% of controll)” value ([3]; 0.7 μM, 72 h, dose–response, individual replicates) was 106 % of controll and 104 % of controll. The “PANC-1 Cell viability (% of controll)” value ([3]; 1 μM, 72 h, dose–response, individual replicates) was 106 % of controll and 107 % of controll, the “PANC-1 Cell viability (% of controll)” value ([3]; 1.5 μM, 72 h, dose–response, individual replicates) was 111 % of controll and the “PANC-1 Cell viability (% of controll)” value ([3]; 2.3 μM, 72 h, dose–response, individual replicates) was 113 % of controll. For the same molecule, the “PANC-1 Cell viability (% of controll)” value ([3]; 3.4 μM, 72 h, dose–response, individual replicates) was 113 % of controll, the “PANC-1 Cell viability (% of controll)” value ([3]; 5.1 μM, 72 h, dose–response, individual replicates) was 109 % of controll and 116 % of controll and the “PANC-1 Cell viability (% of controll)” value ([3]; 7.7 μM, 72 h, dose–response, individual replicates) was 72 % of controll and 90 % of controll. For the same molecule, the “PANC-1 Cell viability (% of controll)” value ([3]; 17.3 μM, 72 h, dose–response, individual replicates) was 0 % of controll, the “PANC-1 Cell viability (% of controll)” value ([3]; 26 μM, 72 h, dose–response, individual replicates) was 0 % of controll and the viability at 2.8 µM [3, 5] was 113 ± 4%. For the same molecule, the viability at 2.8 µM [3, 6] was 113 ± 4%, the viability at 8.3 µM [3, 5] was 61 ± 22% and the viability at 8.3 µM [3, 6] was 61 ± 22%. For the same molecule, the viability at 25 µM [3, 5] was 0%, the viability at 25 µM [3, 6] was 0% and the IC50 ([3]; Homo sapiens, PANC-1, 72 h, read-out: IC50 Value ± SEM PANC-1, 72 h treatment, best-fit values, n = 3) was 8.2 ± 0.41 µM. For the same molecule, the viability at 0.7 µM ([3]; Homo sapiens, PANC-1, 72 h, read-out: PANC-1 Cell viability (% of controll), 0.7 μM, 72 h, dose–response, individual replicates) was 102%, the viability at 1 µM ([3]; Homo sapiens, PANC-1, 72 h, read-out: PANC-1 Cell viability (% of controll), 1 μM, 72 h, dose–response, individual replicates) was 111% and the viability at 1.5 µM ([3]; Homo sapiens, PANC-1, 72 h, read-out: PANC-1 Cell viability (% of controll), 1.5 μM, 72 h, dose–response, individual replicates) was 111%. The viability at 2.3 µM ([3]; Homo sapiens, PANC-1, 72 h, read-out: PANC-1 Cell viability (% of controll), 2.3 μM, 72 h, dose–response, individual replicates) was 112%, the viability at 3.4 µM ([3]; Homo sapiens, PANC-1, 72 h, read-out: PANC-1 Cell viability (% of controll), 3.4 μM, 72 h, dose–response, individual replicates) was 108% and the viability at 5.1 µM ([3]; Homo sapiens, PANC-1, 72 h, read-out: PANC-1 Cell viability (% of controll), 5.1 μM, 72 h, dose–response, individual replicates) was 112%. It also gave a viability at 7.7 µM ([3]; Homo sapiens, PANC-1, 72 h, read-out: PANC-1 Cell viability (% of controll), 7.7 μM, 72 h, dose–response, individual replicates) of 72%, a viability at 17.3 µM ([3]; Homo sapiens, PANC-1, 72 h, read-out: PANC-1 Cell viability (% of controll), 17.3 μM, 72 h, dose–response, individual replicates) of 0% and a viability at 26 µM ([3]; Homo sapiens, PANC-1, 72 h, read-out: PANC-1 Cell viability (% of controll), 26 μM, 72 h, dose–response, individual replicates) of 0%. For the same molecule, the IC50 ([3]; Homo sapiens, PANC-1, read-out: PANC-1 IC50 values, Mean, mean of independently fitted replicate IC50 values (Supplement S.6)) was 8.19 µM, the IC50 ([3]; Homo sapiens, PANC-1, read-out: PANC-1 IC50 values, individual replicates n1-n3, IC50 independently determined for each replicate measurement (Supplement S.6)) was 8.43 µM and the “Selectivity Index (SI) Fibroblast/PANC-1” value ([3]; ratio of mean best-fit IC50 for primary fibroblasts and best-fit IC50 for PANC-1) was 1.3. The IC50 ([3]; read-out: PANC-1 IC50 values, individual replicates n1-n3, IC50 independently determined for each replicate measurement (Supplement S.6)) was 7.99 µM and 8.15 µM and the viability at 25 µM [4] was 0 to 1%.
